# How the values were obtained:
# lens aldose reductase = lens aldose reductase (Bos taurus, UniProt P16116); assay: in vitro aldose reductase inhibition test (modified Hayman and Kinoshita procedure); format: biochemical, bovine; conditions: statement in words
# From the text: In the present case the procedure of Hayman and Kinoshita is modified in that the final chromatography step is omitted in the preparation of the enzyme from bovine lens.
# [1] = Acheson et al., Gastroenterology, 37, 735 (1959); cited from earlier work
smiles,measurement,setting,value
"O=C(O)CCC(=O)c1ccc2c(c1)-c1cccc3cccc-2c13 [Florantyrone, γ-Oxo-8-fluoranthenebutanoic acid]",inhibitor of lens aldose reductase,lens aldose reductase,potent inhibitor of lens aldose reductase
same,hydrocholeretic activity,[1],has hydrocholeretic activity

# Reference: US4361582A, “Aldose reductase inhibition by γ-oxo-8-fluoranthenebutanoic acid” (Ayerst, McKenna & Harrison Inc., priority 1981, dated 1982)
